One experiment has as its target T1, Aurora B (Homo sapiens, UniProt Q96GD4).
T1 construct: HT-29 cells grown in complete growth media
Put plainly: Aurora B cell mechanistic assay (HT-29), phospho-Histone H3 (Ser10) ELISA. Format: cell-based. Conditions: HT-29 cell line; inhibition of phospho-Histone H3 (Ser10); at least duplicate experiments (italicized if single experiment); read-out: Aurora B mech IC50. The protocol:
The cellular activity of the compounds of the present invention against Aurora B may be determined by the following procedure. HT-29 cells grown in complete growth media (McCoy's 5A, 10% FCS, 1% L-glutamine) were plated into wells of a 96 well tissue culture plate (Falcon 3072) at a cell density of 4×10^4 cells/0.09 ml media/well. Cells were subsequently incubated overnight in a 5% CO2 humidified 37° C. incubator. The following day 10 μl of a 10× stock of test compound serially diluted in media was added to the cells and incubated for 1 h at 37° C. at which time Calyculin A (Cell Signaling #9902) was added at a concentration of 100 nM and cells incubated for an additional 30 minutes in a 5% CO2 humidified 37° C. incubator. Media was then aspirated and cells lysed using a Triton based lysis buffer. Lysates were transferred to a pre-coated anti-Histone H3 antibody coated plate supplied by Cell Signaling in their PathScan phospho-Histone H3 (Ser10) ELISA kit (#7155). After an overnight incubation with lysate the ELISA was continued following the manufacturer's instructions. Signal was measured on a Wallac Victor plate reader at 450 nm. DMSO control treated cells served as 100% signal and an Aurora B kinase inhibitor served as 100% inhibition. The percent inhibition of phospho-Histone H3 (Ser10) was expressed as % control. IC50 values were calculated from the percent control data using a standard four-parameter model.
The IC50 values of exemplary compounds of the present invention determined in a Aurora B cell mechanistic assay using the HT-29 cell line according to the procedures described herein in at least duplicate experiments are abbreviated as follows and are shown in Table 4: A, IC50≦0.05 μM; B, 0.05 μM<IC50≦0.2 μM; C, 0.2 μM<IC50≦1 μM; D, IC50>1 μM; ND, not determined. If only data from single experiments are available, the abbreviations are italicized. The Example # of Table 4 corresponds to the compound example number as illustrated in the Examples section.

For another experiment, the system named is Karpas-299 cells. Nature of the experiment: Karpas-299 cell proliferation assay (CellTiter-Glo). Format: cell-based. The note with it: Homo sapiens, 72 h; Karpas-299 cell line (NPM-ALK); 3 days incubation; at least duplicate experiments; read-out: Prolif. IC50.

A value given as a limit tells only on which side of the number the result lay.

T1 sequence (Q96GD4 whole entry): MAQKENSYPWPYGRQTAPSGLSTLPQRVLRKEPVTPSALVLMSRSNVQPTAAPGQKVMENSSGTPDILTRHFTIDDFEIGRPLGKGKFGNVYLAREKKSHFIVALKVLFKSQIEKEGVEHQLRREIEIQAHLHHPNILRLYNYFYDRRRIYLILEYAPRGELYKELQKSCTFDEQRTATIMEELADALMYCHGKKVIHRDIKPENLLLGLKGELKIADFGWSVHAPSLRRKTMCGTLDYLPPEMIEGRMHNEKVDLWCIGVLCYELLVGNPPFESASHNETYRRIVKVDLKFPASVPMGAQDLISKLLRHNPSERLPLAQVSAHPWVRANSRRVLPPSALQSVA

`COc1ccc(F)c(Cl)c1[C@@H](C)c1c[nH]c2ncc(-c3c(CO)nn(C)c3C)cc12` [Example 51, (4-{3-[(1S)-1-(2-Chloro-3-fluoro-6-methoxyphenyl)ethyl]-1H-pyrrolo[2,3-b]pyridin-5-yl}-1,5-dimethyl-1H-pyrazol-3-yl)methanol]: the IC50 on Aurora B is over 1000 nM; with Karpas-299 cells, 50 to 200 nM.

`CCc1nn([C@H]2CC[C@H](O)CC2)cc1-c1cnc2[nH]cc([C@H](C)c3c(OC)ccc(F)c3Cl)c2c1` [Example 47, trans-4-(4-{3-[(1S)-1-(2-Chloro-3-fluoro-6-methoxyphenyl)ethyl]-1H-pyrrolo[2,3-b]pyridin-5-yl}-3-ethyl-1H-pyrazol-1-yl)cyclohexanol]: the IC50 on Aurora B is over 1000 nM; with Karpas-299 cells, 50 to 200 nM.

For `Cc1c(-c2cnc3[nH]cc([C@H](C)c4c(O)ccc(F)c4Cl)c3c2)cnn1[C@H]1CC[C@H](O)CC1` [Example 102, 3-Chloro-4-fluoro-2-[(1S)-1-{5-[1-(trans-4-hydroxycyclohexyl)-5-methyl-1H-pyrazol-4-yl]-1H-pyrrolo[2,3-b]pyridin-3-yl}ethyl]phenol], the values for the half-inhibitory concentration (IC50) at Aurora B and in the experiment with Karpas-299 cells were over 1000 nM and 50 to 200 nM, respectively.

Take `CCc1c(-c2cnc3[nH]cc([C@H](C)c4c(OC(F)F)ccc(F)c4Cl)c3c2)cnn1CC(C)(C)O` [Example 72, 1-[4-(3-{(1S)-1-[2-Chloro-6-(difluoromethoxy)-3-fluorophenyl]ethyl}-1H-pyrrolo[2,3-b]pyridin-5-yl)-5-ethyl-1H-pyrazol-1-yl]-2-methylpropan-2-ol]: the IC50 on Aurora B lay within 200 to 1000 nM; with Karpas-299 cells, 50 to 200 nM.

Take `COc1ccc(F)c(Cl)c1[C@@H](C)c1c[nH]c2ncc(-c3cnn(CC(C)(C)O)c3C)cc12` [Example 8, 1-(4-{3-[(1S)-1-(2-Chloro-3-fluoro-6-methoxyphenyl)ethyl]-1H-pyrrolo[2,3-b]pyridin-5-yl}-5-methyl-1H-pyrazol-1-yl)-2-methylpropan-2-ol]: the IC50 at Aurora B was in the range of 200 to 1000 nM; in the experiment with Karpas-299 cells, 50 to 200 nM.

For `COc1ccc(F)c(Cl)c1[C@@H](C)c1c[nH]c2ncc(-c3cn([C@@H]4C[C@@H](O)[C@@H](O)C4)nc3C)cc12` [Example 32, (1R,2S,4S)-4-(4-{3-[(1S)-1-(2-Chloro-3-fluoro-6-methoxyphenyl)ethyl]-1H-pyrrolo[2,3-b]pyridin-5-yl}-3-methyl-1H-pyrazol-1-yl)cyclopentane-1,2-diol], the concentration for half-maximal inhibition (IC50) is 50 to 200 nM at Aurora B and at most 50 nM with Karpas-299 cells.

For `COc1ccc(F)c(Cl)c1[C@@H](C)c1c[nH]c2ncc(-c3cnn([C@H]4CC[C@H](C(=O)N(C)C)CC4)c3C)cc12` [Example 14, Trans-4-(4-{3-[(1S)-1-(2-chloro-3-fluoro-6-methoxyphenyl)ethyl]-1H-pyrrolo[2,3-b]pyridin-5-yl}-5-methyl-1H-pyrazol-1-yl)-N,N-dimethylcyclohexanecarboxamide], the IC50 on Aurora B is over 1000 nM; with Karpas-299 cells, at most 50 nM.

As for `COc1ccc(F)c(Cl)c1[C@@H](C)c1c[nH]c2ncc(-c3cnn(C)c3C)cc12` [Example 3, 3-[(1S)-1-(2-Chloro-3-fluoro-6-methoxyphenyl)ethyl]-5-(1,5-dimethyl-1H-pyrazol-4-yl)-1H-pyrrolo[2,3-b]pyridine], the half-maximal inhibitory concentration (IC50) on Aurora B is over 1000 nM; with Karpas-299 cells, 50 to 200 nM.

As for `COc1ccc(F)c(Cl)c1[C@@H](C)c1c[nH]c2ncc(-c3cn(C)nc3Cl)cc12` [Example 60, 3-[(1S)-1-(2-chloro-3-fluoro-6-methoxyphenyl)ethyl]-5-(3-chloro-1-methyl-1H-pyrazol-4-yl)-1H-pyrrolo[2,3-b]pyridine], the results for the IC50 on Aurora B and with Karpas-299 cells were 200 to 1000 nM and 50 to 200 nM, respectively.

On to `COc1ccc(F)c(Cl)c1[C@@H](C)c1c[nH]c2ncc(-c3cncn3C)cc12` [Example 64, 3-[(1S)-1-(2-Chloro-3-fluoro-6-methoxyphenyl)ethyl]-5-(1-methyl-1H-imidazol-5-yl)-1H-pyrrolo[2,3-b]pyridine], for which the IC50 at Aurora B is over 1000 nM; in the experiment with Karpas-299 cells, 200 to 1000 nM.

On to `CCc1nn(CC(C)(C)O)cc1-c1cnc2[nH]cc([C@H](C)c3c(OC)ccc(F)c3Cl)c2c1` [Example 12, 1-(4-{3-[(1S)-1-(2-Chloro-3-fluoro-6-methoxyphenyl)ethyl]-1H-pyrrolo[2,3-b]pyridin-5-yl}-3-ethyl-1H-pyrazol-1-yl)-2-methylpropan-2-ol], for which the IC50 at Aurora B is over 1000 nM; with Karpas-299 cells, 50 to 200 nM.

`COc1ccc(F)c(Cl)c1[C@@H](C)c1c[nH]c2ncc(-c3cn(C[C@@H](O)CO)nc3C(F)(F)F)cc12` [Example 34, (2R)-3-[4-{3-[(1S)-1-(2-Chloro-3-fluoro-6-methoxyphenyl)ethyl]-1H-pyrrolo[2,3-b]pyridin-5-yl}-3-(trifluoromethyl)-1H-pyrazol-1-yl]propane-1,2-diol]: the half-inhibitory concentration (IC50) at Aurora B is over 1000 nM; with Karpas-299 cells it was 200 to 1000 nM.

Take `C[C@H](c1c(OC(F)F)ccc(F)c1Cl)c1c[nH]c2ncc(-c3cnn([C@H]4CC[C@H](O)CC4)c3Cl)cc12` [Example 82, trans-4-[5-Chloro-4-(3-{(1S)-1-[2-chloro-6-(difluoromethoxy)-3-fluorophenyl]ethyl}-1H-pyrrolo[2,3-b]pyridin-5-yl)-1H-pyrazol-1-yl]cyclohexanol]: the 50% inhibitory concentration (IC50) at Aurora B is over 1000 nM; in the experiment on Karpas-299 cells, 50 to 200 nM.

In the case of `[2H][C@@](C)(c1c(OC)ccc(F)c1Cl)c1c[nH]c2ncc(-c3cnn([C@H]4CC[C@H](O)CC4)c3C)cc12` [Example 110, trans-4-(4-{3-[(1S)-1-(2-Chloro-3-fluoro-6-methoxyphenyl)(1-^2H)ethyl]-1H-pyrrolo[2,3-b]pyridin-5-yl}-5-methyl-1H-pyrazol-1-yl)cyclohexanol], the IC50 on Aurora B was over 1000 nM; in the experiment with Karpas-299 cells, at most 50 nM.

As to `CCc1nn([C@H]2CC[C@H](O)CC2)cc1-c1cnc2[nH]cc([C@H](C)c3c(OC(F)F)ccc(F)c3Cl)c2c1` [Example 77, trans-4-[4-(3-{(1S)-1-[2-Chloro-6-(difluoromethoxy)-3-fluorophenyl]ethyl}-1H-pyrrolo[2,3-b]pyridin-5-yl)-3-ethyl-1H-pyrazol-1-yl]cyclohexanol], the half-maximal inhibitory concentration (IC50) was 200 to 1000 nM on Aurora B and 50 to 200 nM in the experiment with Karpas-299 cells.

With `CCc1c(-c2cnc3[nH]cc([C@H](C)c4c(OC)ccc(F)c4Cl)c3c2)cnn1CC(C)(C)O` [Example 11, 1-(4-{3-[(1S)-1-(2-Chloro-3-fluoro-6-methoxyphenyl)ethyl]-1H-pyrrolo[2,3-b]pyridin-5-yl}-5-ethyl-1H-pyrazol-1-yl)-2-methylpropan-2-ol], the IC50 was over 1000 nM at Aurora B and 200 to 1000 nM with Karpas-299 cells.

As to `Cc1nn(C[C@@H](O)CO)c(C)c1-c1cnc2[nH]cc([C@H](C)c3c(OC(F)F)ccc(F)c3Cl)c2c1` [Example 69, (2R)-3-[4-(3-{(1S)-1-[2-Chloro-6-(difluoromethoxy)-3-fluorophenyl]ethyl}-1H-pyrrolo[2,3-b]pyridin-5-yl)-3,5-dimethyl-1H-pyrazol-1-yl]propane-1,2-diol], the half-maximal inhibitory concentration (IC50) on Aurora B was over 1000 nM; in the experiment with Karpas-299 cells, at most 50 nM.

Turning to `COc1ccc(F)c(Cl)c1[C@@H](C)c1c[nH]c2ncc(-c3cn([C@H]4CC[C@H](C(N)=O)CC4)nc3C)cc12` [Example 19, trans-4-(4-{3-[(1S)-1-(2-Chloro-3-fluoro-6-methoxyphenyl)ethyl]-1H-pyrrolo[2,3-b]pyridin-5-yl}-3-methyl-1H-pyrazol-1-yl)cyclohexanecarboxamide], the concentration for half-maximal inhibition (IC50) at Aurora B is 50 to 200 nM; in the experiment with Karpas-299 cells it was at most 50 nM.

`COc1ccc(F)c(Cl)c1[C@@H](C)c1c[nH]c2ncc(-c3cnn(C)c3OC)cc12` [Example 62, 3-[(1S)-1-(2-chloro-3-fluoro-6-methoxyphenyl)ethyl]-5-(5-methoxy-1-methyl-1H-pyrazol-4-yl)-1H-pyrrolo[2,3-b]pyridine]: the results for the IC50 on Aurora B and with Karpas-299 cells were over 1000 nM and 200 to 1000 nM, respectively.

On to `CNC(=O)[C@H]1CC[C@H](n2ncc(-c3cnc4[nH]cc([C@H](C)c5c(OC)ccc(F)c5Cl)c4c3)c2C)CC1` [Example 17, trans-4-(4-{3-[(1S)-1-(2-Chloro-3-fluoro-6-methoxyphenyl)ethyl]-1H-pyrrolo[2,3-b]pyridin-5-yl}-5-methyl-1H-pyrazol-1-yl)-N-methyl cyclohexanecarboxamide], for which the IC50 on Aurora B was 200 to 1000 nM; in the experiment with Karpas-299 cells, at most 50 nM.

`C[C@H](c1c(OC(F)F)ccc(F)c1Cl)c1c[nH]c2ncc(-c3cnn([C@H]4CC[C@H](O)CC4)c3CO)cc12` [Example 83, trans-4-[4-(3-{(1S)-1-[2-Chloro-6-(difluoromethoxy)-3-fluorophenyl]ethyl}-1H-pyrrolo[2,3-b]pyridin-5-yl)-5-(hydroxymethyl)-1H-pyrazol-1-yl]cyclohexanol]: the IC50 at Aurora B was over 1000 nM; in the experiment with Karpas-299 cells it was 50 to 200 nM.

Values taken from patent US8445510B2, “Fused bicyclic kinase inhibitors” (OSI Pharmaceuticals, LLC, priority 2011, dated 2013).
